Measured values as given in article PMC7168207, “Dibasic Derivatives of Phenylcarbamic Acid as Prospective Antibacterial Agents Interacting with Cytoplasmic Membrane” (Antibiotics, 2020).
Marks after values point to notes of the source that are not given here.

Assays:
MRSA 63718 = test: synergy with antibiotics (FIC index, checkerboard); assay type: cell-based, Staphylococcus aureus; conditions: in the combination of that line
Text: Representatives from various classes were chosen in order to study the potential difference in synergistic activity according to the diverse mechanisms of action and resistance of these drugs. The method of minimal fractional inhibitory concentration (FIC) index (FICI) in a microtitration plate was used. FICI ≤ 0.5 means synergy; 0.5 < FICI < 1 means additivity; 1 ≤ FICI < 4 means indifference; and FICI ≥ 4 means antagonism.
For synergy effect study, a method of fractional inhibitory concentration was used. […] Raw H was used for the evaluation of MIC(A); column 12 was used for evaluation of MIC(B). The plate was inoculated by the bacterial suspension to reach final concentration of 5 × 10^5 CFU/mL in the wells. The fractional inhibitory concentration (FIC) index was calculated using the concentrations in the first nonturbid (clear) well found in each row and column along the turbidity/nonturbidity interface. To interpret the combined effect, the lowest FICI was used. A ΣFIC ≤ 0.5 means synergy; 0.5 < ΣFIC < 1 means additivity; 1 ≤ ΣFIC < 4 means indifference; and ΣFIC ≥ 4 means antagonism. The tests were made in duplicate, and the results were averaged.

E. faecalis ATCC 29212 = test: time-kill study; assay type: cell-based, Enterococcus faecalis; conditions: EF
Text: (§1) Time-kill studies are used to evaluate the dynamics of antibacterial activity. As mentioned above, a pre-test to determine minimum bactericidal concentration (MBC) by sub-cultivation of aliquots on agar was made (see Section 3.4). […] Time-kill studies were made with methicillin-susceptible S. aureus ATCC 29213 and methicillin-resistant MRSA 63718, vancomycin-susceptible E. faecalis ATCC 29212, and all three VRE isolates. Vancomycin was used as a control (Table 6).
(§2) The method of time-kill curves was used to study the bactericidal effect of selected compounds. […] The experiment was performed with S. aureus ATCC 29213, MRSA 63718, E. faecalis ATCC 29212, and all VRE isolates. […] The tubes were inoculated by bacterial inoculum in the exponential phase of growth to get a final concentration of 7.5 × 10^6 CFU/mL. The tubes were incubated statically at 37 °C. Immediately after inoculation and after 4, 6, 8, and 24 h, 100 µL of the sample was serially diluted (1:10) in PBS. Then, 2 × 20 µL from each dilution were put onto a Mueller–Hinton agar plate and cultivated at 37 °C for 24 h. After incubation, CFUs of dilutions containing 5–50 colonies were counted. Results were expressed as a decrease of log10(CFU) in each time compared to the starting inoculum. Bactericidal effect is defined as a −3log decrease of CFU/mL compared to the growth control in time 0. The test was made in duplicate on two separate occasions, and the results were averaged. The growth curves with error bars are shown in Figures S1 and S2 in Supplementary Materials.

VRE 342B = test: time-kill study; assay type: cell-based, Enterococcus faecalis; conditions: VRE1
Text: as §1, §2

VRE 368 = test: time-kill study; assay type: cell-based, Enterococcus faecalis; conditions: VRE2
Text: as §1, §2

VRE 725B = test: time-kill study; assay type: cell-based, Enterococcus faecalis; conditions: VRE3
Text: as §1, §2

CCCCCCOc1cccc(NC(=O)OC(CN(CCC)CCC)CN2CCCC2)c1.Cl.Cl (stereo not shown) [1g, 1-[3-(dipropylammonio)-2-({[3-(hexyloxy)phenyl]carbamoyl}oxy)propyl]pyrrolidinium dichloride]
concentrations of the tested compound/clinically used antibiotic providing additivity or synergy (MRSA 63718): 2 µg/mL
Log10 Difference in CFU/mL from Inoculum (E. faecalis ATCC 29212; 1 × MIC, 4 h): −1.63 log10 CFU/mL
Log10 Difference in CFU/mL from Inoculum (E. faecalis ATCC 29212; 1 × MIC, 6 h): −1.01 log10 CFU/mL
Log10 Difference in CFU/mL from Inoculum (E. faecalis ATCC 29212; 1 × MIC, 8 h): −0.61 log10 CFU/mL
Log10 Difference in CFU/mL from Inoculum (E. faecalis ATCC 29212; 1 × MIC, 24 h): 0.27 log10 CFU/mL
Log10 Difference in CFU/mL from Inoculum (E. faecalis ATCC 29212; 2 × MIC, 4 h): −3.37 * log10 CFU/mL
Log10 Difference in CFU/mL from Inoculum (E. faecalis ATCC 29212; 2 × MIC, 6 h): −3.43 * log10 CFU/mL
Log10 Difference in CFU/mL from Inoculum (E. faecalis ATCC 29212; 2 × MIC, 8 h): −2.68 log10 CFU/mL
Log10 Difference in CFU/mL from Inoculum (E. faecalis ATCC 29212; 2 × MIC, 24 h): 1.04 log10 CFU/mL
Log10 Difference in CFU/mL from Inoculum (E. faecalis ATCC 29212; 4 × MIC, 4 h): −5.62 * log10 CFU/mL
Log10 Difference in CFU/mL from Inoculum (E. faecalis ATCC 29212; 4 × MIC, 6 h): −5.14 * log10 CFU/mL
Log10 Difference in CFU/mL from Inoculum (E. faecalis ATCC 29212; 4 × MIC, 8 h): −5.92 * log10 CFU/mL
Log10 Difference in CFU/mL from Inoculum (E. faecalis ATCC 29212; 4 × MIC, 24 h): −0.31 log10 CFU/mL
Log10 Difference in CFU/mL from Inoculum (VRE 342B; 1 × MIC, 4 h): −0.14 log10 CFU/mL
Log10 Difference in CFU/mL from Inoculum (VRE 342B; 1 × MIC, 6 h): 0.97 log10 CFU/mL
Log10 Difference in CFU/mL from Inoculum (VRE 342B; 1 × MIC, 8 h): 1.01 log10 CFU/mL
Log10 Difference in CFU/mL from Inoculum (VRE 342B; 1 × MIC, 24 h): 1.11 log10 CFU/mL
Log10 Difference in CFU/mL from Inoculum (VRE 342B; 2 × MIC, 4 h): −0.36 log10 CFU/mL
Log10 Difference in CFU/mL from Inoculum (VRE 342B; 2 × MIC, 6 h): −1.89 log10 CFU/mL
Log10 Difference in CFU/mL from Inoculum (VRE 342B; 2 × MIC, 8 h): −0.64 log10 CFU/mL
Log10 Difference in CFU/mL from Inoculum (VRE 342B; 2 × MIC, 24 h): 1.51 log10 CFU/mL
Log10 Difference in CFU/mL from Inoculum (VRE 342B; 4 × MIC, 4 h): −0.92 log10 CFU/mL
Log10 Difference in CFU/mL from Inoculum (VRE 342B; 4 × MIC, 6 h): −1.00 log10 CFU/mL
Log10 Difference in CFU/mL from Inoculum (VRE 342B; 4 × MIC, 8 h): −1.09 log10 CFU/mL
Log10 Difference in CFU/mL from Inoculum (VRE 342B; 4 × MIC, 24 h): 0.77 log10 CFU/mL
Log10 Difference in CFU/mL from Inoculum (VRE 368; 1 × MIC, 4 h): −2.00 log10 CFU/mL
Log10 Difference in CFU/mL from Inoculum (VRE 368; 1 × MIC, 6 h): 0.29 log10 CFU/mL
Log10 Difference in CFU/mL from Inoculum (VRE 368; 1 × MIC, 8 h): 0.25 log10 CFU/mL
Log10 Difference in CFU/mL from Inoculum (VRE 368; 1 × MIC, 24 h): −0.16 log10 CFU/mL
Log10 Difference in CFU/mL from Inoculum (VRE 368; 2 × MIC, 4 h): −2.34 log10 CFU/mL
Log10 Difference in CFU/mL from Inoculum (VRE 368; 2 × MIC, 6 h): −1.97 log10 CFU/mL
Log10 Difference in CFU/mL from Inoculum (VRE 368; 2 × MIC, 8 h): −1.01 log10 CFU/mL
Log10 Difference in CFU/mL from Inoculum (VRE 368; 2 × MIC, 24 h): 0.32 log10 CFU/mL
Log10 Difference in CFU/mL from Inoculum (VRE 368; 4 × MIC, 4 h): −2.72 * log10 CFU/mL
Log10 Difference in CFU/mL from Inoculum (VRE 368; 4 × MIC, 6 h): −2.71 * log10 CFU/mL
Log10 Difference in CFU/mL from Inoculum (VRE 368; 4 × MIC, 8 h): −2.45 log10 CFU/mL
Log10 Difference in CFU/mL from Inoculum (VRE 368; 4 × MIC, 24 h): 0.97 log10 CFU/mL
Log10 Difference in CFU/mL from Inoculum (VRE 725B; 1 × MIC, 4 h): −0.09 log10 CFU/mL
Log10 Difference in CFU/mL from Inoculum (VRE 725B; 1 × MIC, 6 h): −0.29 log10 CFU/mL
Log10 Difference in CFU/mL from Inoculum (VRE 725B; 1 × MIC, 8 h): 0.19 log10 CFU/mL
Log10 Difference in CFU/mL from Inoculum (VRE 725B; 1 × MIC, 24 h): 2.41 log10 CFU/mL
Log10 Difference in CFU/mL from Inoculum (VRE 725B; 2 × MIC, 4 h): −0.75 log10 CFU/mL
Log10 Difference in CFU/mL from Inoculum (VRE 725B; 2 × MIC, 6 h): −0.74 log10 CFU/mL
Log10 Difference in CFU/mL from Inoculum (VRE 725B; 2 × MIC, 8 h): 0.56 log10 CFU/mL
Log10 Difference in CFU/mL from Inoculum (VRE 725B; 2 × MIC, 24 h): 0.43 log10 CFU/mL
Log10 Difference in CFU/mL from Inoculum (VRE 725B; 4 × MIC, 4 h): −1.85 log10 CFU/mL
Log10 Difference in CFU/mL from Inoculum (VRE 725B; 4 × MIC, 6 h): −1.85 log10 CFU/mL
Log10 Difference in CFU/mL from Inoculum (VRE 725B; 4 × MIC, 8 h): −2.15 log10 CFU/mL
Log10 Difference in CFU/mL from Inoculum (VRE 725B; 4 × MIC, 24 h): −2.27 log10 CFU/mL
